Earlier results in patent publication US20170189347A1, “TRANSDERMAL DELIVERY SYSTEM” (priority 2014, published 2017).

How the values were obtained:
[1] = not given; remark: listed apart in the source
MAO-B = MAO-B (Homo sapiens, UniProt P27338); conditions: in humans
MAO-A = MAO-A (Homo sapiens, UniProt P21397); conditions: in humans
MAO-A, sequence (P21397 whole entry): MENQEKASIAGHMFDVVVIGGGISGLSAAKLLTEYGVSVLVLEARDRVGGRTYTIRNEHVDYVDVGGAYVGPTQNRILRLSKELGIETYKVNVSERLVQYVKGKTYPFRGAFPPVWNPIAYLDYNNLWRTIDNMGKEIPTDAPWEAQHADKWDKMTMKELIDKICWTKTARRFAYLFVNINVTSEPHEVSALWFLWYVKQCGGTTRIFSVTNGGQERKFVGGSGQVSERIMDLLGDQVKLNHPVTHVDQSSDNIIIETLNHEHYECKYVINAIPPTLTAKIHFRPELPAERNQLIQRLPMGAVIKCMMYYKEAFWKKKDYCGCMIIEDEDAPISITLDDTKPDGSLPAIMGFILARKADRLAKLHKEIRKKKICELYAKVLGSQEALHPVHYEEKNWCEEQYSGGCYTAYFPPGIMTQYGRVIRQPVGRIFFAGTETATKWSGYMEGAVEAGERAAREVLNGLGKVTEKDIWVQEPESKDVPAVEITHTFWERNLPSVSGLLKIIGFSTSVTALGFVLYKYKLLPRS

MAO-B, sequence (P27338 whole entry): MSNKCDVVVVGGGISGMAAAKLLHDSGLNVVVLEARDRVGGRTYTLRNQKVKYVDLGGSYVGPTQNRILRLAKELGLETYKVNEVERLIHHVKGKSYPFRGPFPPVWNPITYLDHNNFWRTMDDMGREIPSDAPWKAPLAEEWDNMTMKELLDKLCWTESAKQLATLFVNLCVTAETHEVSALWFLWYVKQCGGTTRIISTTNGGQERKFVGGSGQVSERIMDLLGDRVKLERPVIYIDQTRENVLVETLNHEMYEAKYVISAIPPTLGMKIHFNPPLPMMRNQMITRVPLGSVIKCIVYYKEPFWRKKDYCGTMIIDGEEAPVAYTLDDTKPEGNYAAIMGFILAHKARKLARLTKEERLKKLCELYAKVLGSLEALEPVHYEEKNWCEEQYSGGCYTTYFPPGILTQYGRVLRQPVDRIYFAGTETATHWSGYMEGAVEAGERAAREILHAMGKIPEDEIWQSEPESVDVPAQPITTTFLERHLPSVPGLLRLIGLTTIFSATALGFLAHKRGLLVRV

Row | Compound | solubility in water | solubility in non-crosslinked acrylic copolymer PSA DT 87-4098 ([1]; DT 87-4098) [wt %] | solubility in non-crosslinked acrylic copolymer PSA DT 87-9088 ([1]; DT 87-9088) [wt %] | solubility in non-crosslinked acrylic copolymer PSA DT 87-9301 ([1]; DT 87-9301) [wt %] | solubility in polyisobutylene (PIB) PSA ([1]; PIB) | solubility in silicone PSA ([1]; silicone PSA) [wt %] | inhibition of MAO-B (MAO-B) | inhibition of MAO-A (MAO-A)
1 | C#CCN(C)[C@H](C)Cc1ccccc1 [selegiline] | 0.025 grams of drug per liter of water |  |  |  |  |  |  | 
2 | C#CCN[C@@H]1CCc2ccccc21 [rasagiline, (1R)-N-(prop-2-yn-1-yl)-2,3-dihydro-1H-inden-1-amine] | 0.025 grams of drug per liter of water | 54 | 111 | 78 | about 8 wt % | ~6 | selectively inhibit MAO-B | not to inhibit MAO-A
